Assay results from patent US11878975B2, “Substituted indole compounds useful as TLR inhibitors” (BRISTOL-MYERS SQUIBB COMPANY, priority 2017, dated 2024).

Assays:
Format in all cases: cell-based
human TLR7 = biological target: T1, human TLR7 (Homo sapiens, UniProt Q9NYK1); test: TLR7 inhibition reporter assay (HEK-Blue cells, SEAP reporter, gardiquimod stimulation); settings: HEK-Blue cells overexpressing human TLR7, SEAP reporter, gardiquimod 7.5 μM
T1 construct: host or cells: HEK-Blue cells
T1 sequence (Q9NYK1 27-1049): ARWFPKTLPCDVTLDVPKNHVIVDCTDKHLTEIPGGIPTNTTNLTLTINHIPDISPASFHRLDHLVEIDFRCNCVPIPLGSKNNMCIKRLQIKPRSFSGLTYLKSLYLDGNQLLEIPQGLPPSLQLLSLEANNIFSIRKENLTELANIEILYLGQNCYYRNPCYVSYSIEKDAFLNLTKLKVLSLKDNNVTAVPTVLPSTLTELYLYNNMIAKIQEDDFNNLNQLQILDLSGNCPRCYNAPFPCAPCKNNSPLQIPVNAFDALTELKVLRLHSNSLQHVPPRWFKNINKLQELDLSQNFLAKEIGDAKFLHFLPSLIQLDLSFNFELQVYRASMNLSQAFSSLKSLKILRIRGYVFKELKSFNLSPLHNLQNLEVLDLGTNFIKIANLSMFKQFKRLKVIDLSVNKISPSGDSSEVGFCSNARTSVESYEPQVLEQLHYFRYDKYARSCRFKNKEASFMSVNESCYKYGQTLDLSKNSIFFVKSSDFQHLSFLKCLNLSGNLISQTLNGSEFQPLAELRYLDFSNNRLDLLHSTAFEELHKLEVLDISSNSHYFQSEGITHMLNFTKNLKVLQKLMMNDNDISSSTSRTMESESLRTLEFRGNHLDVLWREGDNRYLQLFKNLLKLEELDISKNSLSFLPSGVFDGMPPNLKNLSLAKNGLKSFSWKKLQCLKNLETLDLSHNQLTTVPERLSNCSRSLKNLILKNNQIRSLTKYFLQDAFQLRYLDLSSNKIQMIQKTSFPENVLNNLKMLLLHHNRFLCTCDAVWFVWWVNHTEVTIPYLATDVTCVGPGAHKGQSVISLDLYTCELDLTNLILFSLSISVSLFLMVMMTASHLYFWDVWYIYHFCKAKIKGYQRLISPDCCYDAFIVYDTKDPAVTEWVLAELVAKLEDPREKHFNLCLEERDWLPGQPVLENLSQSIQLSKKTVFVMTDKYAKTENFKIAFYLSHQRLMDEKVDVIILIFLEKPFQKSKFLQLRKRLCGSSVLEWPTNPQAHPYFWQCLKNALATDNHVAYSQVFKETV
Outline: (§1)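 HEK-Blue cells with NF-κB/AP-1-driven SEAP reporter, pre-treated 30 min at room temperature with compound (0.05 nM-50 μM). Stimulants: gardiquimod 7.5 μM (TLR7), R848 15.9 μM (TLR8) or ODN2006 5 nM (TLR9). SEAP measured after 22 h at 37° C.; percent inhibition versus agonist-plus-DMSO and known-inhibitor wells.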

human TLR8 = biological target: T2, human TLR8 (Homo sapiens, UniProt Q9NR97); test: TLR8 inhibition reporter assay (HEK-Blue cells, SEAP reporter, R848 stimulation); settings: HEK-Blue cells overexpressing human TLR8, SEAP reporter, R848 15.9 μM
T2 construct: host or cells: HEK-Blue cells
T2 sequence (Q9NR97 27-1041): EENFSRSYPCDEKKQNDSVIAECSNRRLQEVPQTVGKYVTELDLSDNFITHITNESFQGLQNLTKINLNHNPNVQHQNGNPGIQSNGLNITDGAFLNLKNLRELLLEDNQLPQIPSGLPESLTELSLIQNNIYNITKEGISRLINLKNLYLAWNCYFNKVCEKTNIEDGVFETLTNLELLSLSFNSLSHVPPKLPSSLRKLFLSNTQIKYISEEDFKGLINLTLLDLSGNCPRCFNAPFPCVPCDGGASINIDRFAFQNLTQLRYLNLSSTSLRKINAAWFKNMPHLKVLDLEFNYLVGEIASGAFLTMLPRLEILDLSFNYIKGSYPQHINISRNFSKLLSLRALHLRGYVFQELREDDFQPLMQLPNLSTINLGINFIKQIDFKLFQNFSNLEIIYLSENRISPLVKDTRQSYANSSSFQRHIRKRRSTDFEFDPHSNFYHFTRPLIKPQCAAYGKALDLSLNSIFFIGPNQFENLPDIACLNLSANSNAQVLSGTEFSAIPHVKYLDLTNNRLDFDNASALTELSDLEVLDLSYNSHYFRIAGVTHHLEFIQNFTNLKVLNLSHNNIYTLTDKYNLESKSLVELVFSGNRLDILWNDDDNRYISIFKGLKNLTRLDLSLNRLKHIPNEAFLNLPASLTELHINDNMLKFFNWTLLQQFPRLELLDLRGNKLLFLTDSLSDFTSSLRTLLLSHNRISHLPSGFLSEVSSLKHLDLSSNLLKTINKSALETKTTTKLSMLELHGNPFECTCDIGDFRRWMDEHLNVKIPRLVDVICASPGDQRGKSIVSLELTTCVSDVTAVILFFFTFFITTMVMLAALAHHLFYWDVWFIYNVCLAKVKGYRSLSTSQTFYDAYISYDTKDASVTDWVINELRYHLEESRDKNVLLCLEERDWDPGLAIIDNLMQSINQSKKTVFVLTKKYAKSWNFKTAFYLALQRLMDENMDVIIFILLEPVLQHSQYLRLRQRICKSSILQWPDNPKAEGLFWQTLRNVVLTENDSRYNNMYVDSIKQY
Outline: as §1

human TLR9 = biological target: T3, human TLR9 (Homo sapiens, UniProt Q9NR96); test: TLR9 inhibition reporter assay (HEK-Blue cells, SEAP reporter, ODN2006 stimulation); settings: HEK-Blue cells overexpressing human TLR9, SEAP reporter, ODN2006 5 nM
T3 construct: host or cells: HEK-Blue cells
T3 sequence (Q9NR96 26-1032): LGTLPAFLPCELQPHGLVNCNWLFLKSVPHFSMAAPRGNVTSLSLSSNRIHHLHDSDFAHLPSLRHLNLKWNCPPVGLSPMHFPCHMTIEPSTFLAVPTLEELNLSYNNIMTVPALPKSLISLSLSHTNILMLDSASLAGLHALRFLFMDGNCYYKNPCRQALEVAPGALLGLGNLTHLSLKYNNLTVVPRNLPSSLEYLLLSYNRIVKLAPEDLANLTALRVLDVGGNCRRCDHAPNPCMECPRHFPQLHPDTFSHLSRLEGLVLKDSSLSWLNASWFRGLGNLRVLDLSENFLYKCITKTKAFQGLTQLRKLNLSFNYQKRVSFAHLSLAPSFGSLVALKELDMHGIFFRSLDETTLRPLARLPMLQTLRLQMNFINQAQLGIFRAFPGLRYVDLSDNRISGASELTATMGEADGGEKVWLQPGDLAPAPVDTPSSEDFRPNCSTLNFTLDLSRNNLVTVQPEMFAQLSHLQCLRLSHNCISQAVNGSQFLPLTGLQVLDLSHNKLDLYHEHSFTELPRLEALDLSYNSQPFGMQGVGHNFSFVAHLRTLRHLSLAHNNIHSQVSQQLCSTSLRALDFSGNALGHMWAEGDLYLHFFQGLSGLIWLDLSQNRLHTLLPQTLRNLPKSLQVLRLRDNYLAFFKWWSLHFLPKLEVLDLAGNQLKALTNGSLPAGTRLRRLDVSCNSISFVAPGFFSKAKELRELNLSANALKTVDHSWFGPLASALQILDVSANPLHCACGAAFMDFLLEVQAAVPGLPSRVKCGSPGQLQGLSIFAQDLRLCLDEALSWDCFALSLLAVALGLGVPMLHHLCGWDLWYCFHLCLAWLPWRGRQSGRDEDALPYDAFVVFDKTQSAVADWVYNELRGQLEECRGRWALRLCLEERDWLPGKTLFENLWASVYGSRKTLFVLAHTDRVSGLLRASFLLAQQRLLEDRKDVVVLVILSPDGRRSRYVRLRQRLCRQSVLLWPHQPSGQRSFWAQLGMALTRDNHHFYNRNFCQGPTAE
Outline: as §1

SMILES | IC50 (human TLR7) | IC50 (human TLR8) | IC50 (human TLR9)
Cc1cc(-c2[nH]c3ccc(C4CN(C(=O)CN(C)C)CCO4)cc3c2C(C)C)cn2ncnc12 (stereo not drawn) [Example 328, 2-(dimethylamino)-1-(2-(3-isopropyl-2-(8-methyl-[1,2,4]triazolo[1,5-a]pyridin-6-yl)-1H-indol-5-yl)morpholino)ethanone] | 0.85 nM | 8.2 nM | 5490 nM
Cc1cc(-c2[nH]c3ccc([C@@H]4C[C@H]4C(=O)N(C)C4CCNCC4)cc3c2C(C)C)ccn1 [Example 462] | 25 nM | 27 nM | 116 nM
Cc1cc(-c2[nH]c3ccc(C4CN(C(=O)CN(C)C)C(C)(C)CO4)cc3c2C(C)C)cn2ncnc12 (single isomer, unassigned) [Example 372, 2-(dimethylamino)-1-(2-(3-isopropyl-2-(8-methyl-[1,2,4]triazolo[1,5-a]pyridin-6-yl)-1H-indol-5-yl)-5,5-dimethylmorpholino)ethanone] | 8 nM | 11 nM | 26700 nM
COc1cc(-c2[nH]c3ccc(C4CCC(NC(=O)CNCC(C)(C)O)CC4)cc3c2C(C)C)cn2ncnc12 (stereo not drawn) [Example 140] | 0.7 nM | 5.6 nM | 14200 nM
Cc1cc(-c2[nH]c3ccc(CC4CCCN4Cc4ccccc4)cc3c2C(C)C)cn2ncnc12 (single isomer, unassigned) [Example 396, 5-[(1-benzylpyrrolidin-2-yl)methyl]-2-{8-methyl-[1,2,4]triazolo[1,5-a]pyridin-6-yl}-3-(propan-2-yl)-1H-indole] | 2 nM | 2.8 nM | 2380 nM
COCCN(C)C1CCC(c2ccc3[nH]c(-c4cc(OC)c5ncnn5c4)c(C(C)C)c3c2)CC1 (single isomer, unassigned) [Example 72] | 0.3 nM | 1.2 nM | 1280 nM
CNCC(=O)N1CCCC(c2ccc3[nH]c(-c4cn5ncnc5c(C)c4C)c(C(C)C)c3c2)C1 (stereo not drawn) [Example 213] | 3 nM | 5 nM | 6520 nM
Cc1c(-c2[nH]c3ccc(C4CC(N)C4)cc3c2C(C)C)cn2ncnc2c1C (stereo not drawn) [Example 541] | 2 nM | 0.79 nM | 5740 nM
CNC(=O)CN1CCOC(c2ccc3[nH]c(-c4cc(C)c5ncnn5c4)c(C(C)C)c3c2)C1 (stereo not drawn) [Example 307] | 8 nM | 47 nM | > 50000 nM
CNCC(=O)N1CCOC(c2ccc3[nH]c(-c4cc(OC)c5ncnn5c4)c(C(C)C)c3c2)C1 (stereo not drawn) [Example 342] | 3 nM | 16 nM | 1720 nM
Cc1cc(-c2[nH]c3ccc(C4CN5CCC4CC5)cc3c2C(C)C)cn2ncnc12 (stereo not drawn) [Example 364] | 0.64 nM | 3.8 nM | 1050 nM
COc1cc(-c2[nH]c3ccc(C4CCC(N5CC(F)C5)CC4)cc3c2C(C)C)cn2ncnc12 (stereo not drawn) [Example 23] | 2 nM | 9.2 nM | 2840 nM
COc1cc(-c2[nH]c3ccc(C4CC(N(C)C(=O)CN(C)C)C4)cc3c2C(C)C)cn2ncnc12 (stereo not drawn) [Example 588] | 0.4 nM | 1.4 nM | 1870 nM
COc1cc(-c2[nH]c3ccc(C4CN(C)C(C)(C)CO4)cc3c2C(C)C)cn2ncnc12 (stereo not drawn) [Example 377] | 2 nM | 5.2 nM | 4720 nM
COc1cc(-c2[nH]c3ccc(C4CCCN(C(C)C)C4)cc3c2C(C)C)cn2ncnc12 (single isomer, unassigned) [Example 239] | 2 nM | 3 nM | 1370 nM
Cc1cc(-c2[nH]c3ccc(C4CCCN(C(=O)C5C(C)(C)C5(C)C)C4)cc3c2C(C)C)cc(C)n1 (stereo not drawn) [Example 200] | 40 nM | 244 nM | 26500 nM
CNCC(=O)N1CCCC(c2ccc3[nH]c(-c4cc(OC)c5ncnn5c4)c(C(C)C)c3c2)C1 (stereo not drawn) [Example 211, 1-(3-(3-isopropyl-2-(8-methoxy-[1,2,4]triazolo[1,5-a]pyridin-6-yl)-1H-indol-5-yl)piperidin-1-yl)-2-(methylamino)ethan-1-one] | 3 nM | 11 nM | 8000 nM
Cc1cc(-c2[nH]c3ccc(C4CCC(NC5COC5)CC4)cc3c2C(C)C)cn2ncnc12 (stereo not drawn) [Example 59] | 0.14 nM | 0.88 nM | 3140 nM
Cc1c(-c2[nH]c3ccc(C4CN(CC#N)C4)cc3c2C(C)C)cn2ncnc2c1C [Example 553] | 4 nM | 7.2 nM | 32300 nM
Cc1cc(-c2[nH]c3ccc(C4CCCN(C5CCN(C(C)C)CC5)C4)cc3c2C(C)C)cc(C)n1 (stereo not drawn) [Example 245] | 104 nM | 19 nM | 419 nM
COc1ccc(CNC2CCC(c3ccc4[nH]c(-c5cc(C)nc(C)c5)c(C(C)C)c4c3)CC2)cc1 (single isomer, unassigned) [Example 49] | 7 nM | 22 nM | 391 nM
COc1cc(-c2[nH]c3ccc(C4CCC(NC(=O)CN5CCS(=O)(=O)CC5)CC4)cc3c2C(C)C)cn2ncnc12 (stereo not drawn) [Example 144] | 3 nM | 9.7 nM | 33300 nM
